Measurements: US20160143877A1, “COMPOSITION FOR SUPPRESSING ADIPOCYTE DIFFERENTIATION, FOR REDUCING FAT ACCUMULATION AND/OR FOR PROMOTING ADIPONECTIN SECRETION AND USAGE FOR SAID COMPOSITION” (PUBLIC UNIVERSITY CORPORATION OSAKA CITY UNIVERSITY, priority 2013, published 2016)

What was measured:
[1] = test system: 3T3-L1 cells; assay: Adipocyte differentiation: TG accumulation by Oil red 0 staining, sesaminol added during differentiation induction; format: cell-based, Mouse; conditions: read after Day 8
Procedure: Preadipocytes, when differentiated into adipocytes, intracellularly accumulate lipid droplets containing TG and the like. In the present Example, sesaminol was added to preadipocyte during induction of differentiation and intracellular TG after completion of induction was stained with an azo dye, Oil red 0, to evaluate an effect of sesaminol on adipocyte differentiation. Mouse fibroblast cell line 3T3-L1 (Japan Health Sciences Foundation) were used as preadipocytes. 3T3-L1 cells were inoculated at a concentration of 1.0×10^5 to 1.0×10^6 cells/ml and cultured until they reached 80 to 90% confluence in a 5% CO2 incubator at 37° C. The culture medium used was Dulbecco's modified Eagle's medium (DMEM: Nissui Pharmaceutical Co., Ltd.) containing 10% fetal bovine serum (FBS: Nichirei Biosciences, Inc.), penicillin (50 units/ml, Meiji Co., Ltd.) and streptomycin ([…], Meiji Co., Ltd.). […] After washing, cells were analysed under a microscope (OLYMPUS IX-70: Olympus Corporation) and photographed.

[2] = test system: 3T3-L1 adipocytes; assay: Adiponectin expression level in adipocytes by SDS-PAGE and western blotting; format: cell-based, Mouse; conditions: sesaminol 0.5 or 1.0 μg/ml added to differentiated adipocytes, three days
Procedure: Various physiologically active adipocytokines are secreted from adipocytes. Among these adipocytokines, adiponectin is known to improve insulin resistance and prevent atherosclerosis. In the present Example, the profile of adiponectin secretion after addition of sesaminol to adipocytes was analysed by SDS-PAGE and western blotting.
In the same manner as in (1-1) in Example 1, preadipocyte 3T3-L1 cells were cultured until they reached 80 to 90% confluence. […]
The sesaminol solution was added so as to obtain the final concentration of sesaminol of 0.5 or 1.0 μg/ml in adipocytes. […] An aliquot of the collected supernatant was subjected to protein quantification using Serva Blue G (Serva Electrophoresis GmbH) based on the absorbance at 595 nm in order to calculate the amount of sample applied to electrophoresis.
Equal volumes of the supernatant containing cell lysate and a sample buffer were mixed to prepare a sample for electrophoresis. […] The membrane was then subjected to reaction in a DAB solution (3,3′-diaminobenzidine tetrahydrochloride (10 mg), distilled water (1 ml), 0.2 M PBS (50 ml) and 30% H2O2 (100 μl)), dried and then subjected to quantification of intensity of bands using Scion Image (free software: Scion). The ratio of the band intensity of adiponectin relative to the band intensity of β-actin was calculated for the samples.

[3] = test system: 3T3-L1 adipocytes; assay: Fat (TG) accumulation in differentiated adipocytes, Oil red 0 staining and absorbance at 520 nm; format: cell-based, Mouse; conditions: sesaminol 0.5 or 1.0 μg/ml added to differentiated adipocytes, three days
Procedure: In the same manner as in (1-1) in Example 1, preadipocyte 3T3-L1 cells were cultured until they reached 80 to 90% confluence. Then the medium was replaced with DMEM containing differentiation inducing agents which were bovine insulin (0.2 μM, Wako Pure Chemical Industries, Ltd.), dexamethasone (0.25 μM, Wako Pure Chemical Industries, Ltd.) and 3-isobutyl-1-methylxanthine (0.5 mM, Wako Pure Chemical Industries, Ltd.) (this is referred to as “Day 0 of differentiation induction”). After two days, the medium was replaced with DMEM containing only insulin (0.2 μM). Thereafter, the medium was replaced with fresh DMEM every two days and induction of differentiation was completed on Day 8 of differentiation induction to obtain adipocytes.
To the obtained adipocytes, the sesaminol solution was added so as to obtain the final concentration of sesaminol of 0.5 or 1.0 μg/ml. As a control, cells were cultured without addition of the sesaminol solution. […] Cells were analysed under a microscope (OLYMPUS IX-70: Olympus Corporation) and photographed. […] After microscopic observation, cells were added with isopropanol (3 ml) to extract Oil red 0 staining solution and the resulting extract was measured for absorbance at 520 nm. According to the measured values, TG accumulations in cells were compared. […]

[4] = test system: various cell lines used in Examples; assay: Toxicity and viability check of the sesaminol solution on the cell lines used; format: cell-based; conditions: sesaminol solution (3.0 mg/ml in DMSO) as used in Examples
Procedure: The highly concentrated sesaminol solution was dissolved in dimethyl sulphoxide (DMSO) to prepare a sesaminol solution (3.0 mg/ml) to be used in Examples.

[5] = test system: 3T3-L1 cells; assay: Adipocyte differentiation: glycerol-3-phosphate dehydrogenase (GPDH) activity of cells after differentiation induction; format: cell-based, Mouse; conditions: sesaminol 0.5 or 1.0 μg/ml during differentiation induction; ** p<0.01 vs control
Procedure: GPDH is a rate-limiting enzyme of triacylglycerol (TG; also referred to as triglyceride) synthesis in adipocytes. […] Thus GPDH activity of cells after differentiation induction was measured according to the method of Wise and Green (Wise, L. S. and Green, H., (1979) Participation of one isozyme of cytosolic glycerophosphate dehydrogenase in the adipose conversion of 3T3 cells. The Journal of Biological Chemistry, 254, 273-275). Cells used for the GPDH assay were obtained in the same manner as described in (1-1) and (1-2). As a control, cells were differentiated without addition of the sesaminol solution.
Adipocytes derived from 3T3-L1 cells on or after Day 8 of induction were washed twice with PBS. Cells were added with a buffer for enzymatic extraction (100 mM triethanolamine, 2.5 mM EDTA) (300 μl) and collected using a cell scraper. […]
To a test tube containing the buffer for enzymatic extraction (2800 μl) which was maintained at 28° C. in a water bath, 2-mercaptoethanol (final concentration: 0.1 mM), NADH (final concentration: 0.12 mM), dihydroxyacetone phosphate (DHAP: SIGMA) (final concentration: 0.2 mM) and a measurement sample (50 μl) were added and the absorbance was measured over 3 minutes at 340 nm. GPDH activity was calculated using an extinction coefficient of NADH (6.22 mM^−1cm^−1) on the basis of the change of absorbance per minute (NADH variation). […]

**Q.** How did the “cells that did not contain stained lipid droplets (Oil red 0, FIG. 1)” value ([1]; sesaminol 0.5 μg/ml added on Days 0, 2, 4 and 6 of differentiation induction) turn out when `Oc1cc2c(cc1C1OCC3C(c4ccc5c(c4)OCO5)OCC13)OCO2` (stereo not shown) [sesaminol] was run?
**A.** The value was “many cells”.

**Q.** And the “cells that did not contain stained lipid droplets (Oil red 0, FIG. 1)” value ([1]; sesaminol 1.0 μg/ml added on Days 0, 2, 4 and 6 of differentiation induction)?
**A.** Its value is “almost all the cells”.

**Q.** What about the “adiponectin expression level (band intensity ratio adiponectin/β-actin, control = 1, FIG. 5)” value [2] of the same molecule?
**A.** The value was “significantly enhanced with an increase in the amount of sesaminol added”.

**Q.** And the “size of lipid droplets in adipocytes (FIG. 3)” value [3]?
**A.** The value was “tend to decrease the size compared to the control”.

**Q.** What about the “TG accumulation in adipocytes (FIG. 4, percent of control)” value ([3]; * p<0.05 vs control) of the same molecule?
**A.** Its value is “decreased TG accumulation”.

**Q.** And the “toxicity to and effect on viability of cell lines” value [4]?
**A.** The value was “not toxic to and did not affect viability”.

**Q.** And the “GPDH activity of cells after differentiation induction (FIG. 2, percent of control)” value [5]?
**A.** The value was “decreased with an increase in the amount of sesaminol added”.
